The source of these data is patent US12016852B2, “Pyrrolidine glycosidase inhibitors” (Asceneuron SA, priority 2018, dated 2024).

For the assay, the target named is T1, Human O-GlcNAcase (His-Tagged hOGA) (Homo sapiens, UniProt O60502).
T1 sequence (O60502 1-916): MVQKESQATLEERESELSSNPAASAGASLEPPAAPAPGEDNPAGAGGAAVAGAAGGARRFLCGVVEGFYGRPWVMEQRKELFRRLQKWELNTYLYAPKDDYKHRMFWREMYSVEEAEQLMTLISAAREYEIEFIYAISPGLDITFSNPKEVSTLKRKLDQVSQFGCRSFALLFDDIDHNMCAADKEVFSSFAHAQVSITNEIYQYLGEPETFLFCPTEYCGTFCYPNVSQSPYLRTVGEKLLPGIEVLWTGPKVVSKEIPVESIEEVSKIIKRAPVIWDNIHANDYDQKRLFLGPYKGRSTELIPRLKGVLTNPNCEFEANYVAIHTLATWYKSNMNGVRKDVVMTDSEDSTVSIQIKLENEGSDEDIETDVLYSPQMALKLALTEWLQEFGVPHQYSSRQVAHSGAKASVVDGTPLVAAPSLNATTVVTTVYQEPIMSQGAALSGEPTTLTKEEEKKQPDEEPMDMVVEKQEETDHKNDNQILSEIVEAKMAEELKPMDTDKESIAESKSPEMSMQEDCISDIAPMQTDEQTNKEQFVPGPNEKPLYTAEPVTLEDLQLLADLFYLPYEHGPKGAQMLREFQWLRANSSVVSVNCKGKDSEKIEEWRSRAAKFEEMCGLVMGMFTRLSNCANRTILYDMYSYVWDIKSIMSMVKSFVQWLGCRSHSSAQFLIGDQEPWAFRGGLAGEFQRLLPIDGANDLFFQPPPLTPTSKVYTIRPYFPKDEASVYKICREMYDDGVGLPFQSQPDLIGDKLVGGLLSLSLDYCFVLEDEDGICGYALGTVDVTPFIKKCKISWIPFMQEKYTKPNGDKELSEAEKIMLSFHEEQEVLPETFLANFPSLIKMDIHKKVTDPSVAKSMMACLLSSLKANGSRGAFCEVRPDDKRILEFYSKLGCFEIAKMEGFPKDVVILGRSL
As to the kind of experiment: Human O-GlcNAcase enzyme inhibition assay. As to conditions: 20 nM His-Tagged hOGA, 10 μM FL-GlcNAc, McIlvaine's Buffer pH 6.5, 60 min at room temperature, fluorescence; read-out: OGA IC50. In kind it is biochemical. Summed up: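 20 nM His-tagged hOGA with 10 μM fluorescein-GlcNAc substrate in McIlvaine's buffer pH 6.5, 60 min at room temperature, stopped with glycine pH 10.75. Fluorescence (485/520 nm) background-corrected using 3 uM Thiamet as full inhibition and 0.5% DMSO as no inhibition; IC50 from sigmoidal dose-response.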
By IC50 is commonly meant the point on the concentration scale where inhibition reaches its midpoint. On to `c1cnc(-c2ccc(CN3CCCC3c3ccc4c(c3)OCCO4)cc2)nc1` (single isomer, unassigned) [Example 75, (S)-2-(4-((2-(2,3-dihydrobenzo[b] [1,4]dioxin-6-yl)pyrrolidin-1-yl)methyl)phenyl)pyrimidine or (R)-2-(4-((2-(2,3-dihydrobenzo[b] [1,4]dioxin-6-yl)pyrrolidin-1-yl)methyl)phenyl)pyrimidine], for which the IC50 fell in the range of 50 to 200 nM.
On to `Cn1cc(-c2ccc(CN3CCCC3c3ccc4c(c3)OCCO4)nc2)cn1` (single isomer, unassigned) [Example 145], for which the IC50 is 200 to 1000 nM.
Turning to `CS(=O)(=O)N1CCN(c2ccc(CN3CCCC3c3ccc4c(c3)OCCO4)cc2)CC1` (single isomer, unassigned) [Example 148], the IC50 was 1000 to 10000 nM.
